The assay concerns the target T1, human enzyme NAMPT (full length) (Homo sapiens, UniProt P43490).
T1 construct: human enzyme NAMPT (full length)
The experiment in a line: NMN fluorescence biochemical assay (stimulation of NMN synthesis by NAMPT). As to conditions: for EC50: concentration giving half-maximal activation, read-out: Enzymatic EC50; for Enzymatic Emax: fold change of maximal activation compared to DMSO. In a few lines:
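Full-length human NAMPT (100 nM) was preincubated 15 min at 37 °C with compound in 50 mM Tris-HCl pH 7.5, 10 mM MgCl2, 2 mM DTT, then reacted 1 h at 37 °C with 50 μM NAM, 100 μM PRPP, 4 mM ATP (stated solution concentrations). NMN was derivatised with acetophenone/KOH then formic acid and read at Ex/Em 382/445 nm; EC50 and Emax (fold over DMSO) reported.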

[1] abbreviates: NMN synthesis by purified human NAMPT (100 nM).
The mark [2] stands for this setting: NMN fluorescence assay, purified human NAMPT 100 nM.

Where two headings read alike, the source gives them in different places.

T1 sequence (P43490 whole entry): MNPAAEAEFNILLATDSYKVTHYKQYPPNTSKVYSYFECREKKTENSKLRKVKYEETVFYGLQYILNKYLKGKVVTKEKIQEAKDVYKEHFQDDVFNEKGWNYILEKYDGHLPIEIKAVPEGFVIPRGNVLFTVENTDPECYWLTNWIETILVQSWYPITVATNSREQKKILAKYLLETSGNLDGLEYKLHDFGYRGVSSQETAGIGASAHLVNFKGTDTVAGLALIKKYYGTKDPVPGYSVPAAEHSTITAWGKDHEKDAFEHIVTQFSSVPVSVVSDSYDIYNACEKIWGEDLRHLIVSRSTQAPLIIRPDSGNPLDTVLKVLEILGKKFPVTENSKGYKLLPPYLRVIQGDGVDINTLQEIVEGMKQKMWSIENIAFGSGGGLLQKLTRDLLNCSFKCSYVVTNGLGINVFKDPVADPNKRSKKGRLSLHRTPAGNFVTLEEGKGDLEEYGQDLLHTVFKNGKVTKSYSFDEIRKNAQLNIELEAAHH

The term EC50 denotes the concentration at which the effect is half-maximal. On to `Cn1ncc(Cl)c1CC1c2ccccc2C(=O)N1Cc1ccc2[nH]c(=O)oc2c1` (stereo not drawn) [Compound 251, 6-((1-((4-chloro-1-methyl-1H-pyrazol-5-yl)methyl)-3-oxoisoindolin-2-yl)methyl)benzo[d]oxazol-2(3H)-one], for which the “Enzymatic Emax” value is “A (A>3)”. Under setting [1], the EC50 was < 0.5 µM.

As to `CC(C)(C)c1ccc2c(c1)C(=O)N(Cc1ccc(O)cc1)C2=O` [Compound 18, 5-(tert-butyl)-2-(4-hydroxybenzyl)isoindoline-1,3-dione], the “Enzymatic Emax” value is reported as “B (3≥B>2)”. The EC50 under setting [1] was 0.5 to 5 µM.

Regarding `N#Cc1cccc(F)c1C[C@@H]1c2ccccc2C(=O)N1Cc1ccc2[nH]c(=O)oc2c1` [Compound 171, (R)-3-fluoro-2-((3-oxo-2-((2-oxo-2,3-dihydrobenzo[d]oxazol-6-yl)methyl)isoindolin-1-yl)methyl)benzonitrile], the “Enzymatic Emax” value is “C (2≥C)”. Further, the concentration giving a half-maximal response (EC50) under setting [1] is ≥ 5 µM.

As to `O=C1c2ccccc2C(Cc2cccc3ncoc23)N1Cc1ccc2[nH]c(=O)oc2c1` (stereo not drawn) [Compound 218, 6-((1-(benzo[d]oxazol-7-ylmethyl)-3-oxoisoindolin-2-yl)methyl)benzo[d]oxazol-2(3H)-one], the “Enzymatic Emax” value was “A (A>3)”. For the same molecule, the 50% effective concentration (EC50) under setting [1] is 0.5 to 5 µM.

Turning to `Cc1ccnnc1CC1c2ccccc2C(=O)N1Cc1ccc2[nH]c(=O)oc2c1` (stereo not drawn) [Compound 261, 6-((1-((4-methylpyridazin-3-yl)methyl)-3-oxoisoindolin-2-yl)methyl)benzo[d]oxazol-2(3H)-one], the “Enzymatic Emax” value is “A (A>3)”. Further, under setting [1], the EC50 fell in the range of 0.5 to 5 µM.

In the case of `N#Cc1nc2cc(CN3C(=O)c4ccccc4C3Cc3ncccc3Br)ccc2[nH]1` (stereo not drawn) [Compound 366, 5-((1-((3-bromopyridin-2-yl)methyl)-3-oxoisoindolin-2-yl)methyl)-1H-benzo[d]imidazole-2-carbonitrile], the “Enzymatic Emax” value is listed as “C (2≥C)”. Further, the 50% effective concentration (EC50) under setting [2] is 0.5 to 5 µM.

In the case of `O=C1c2ccccc2C(Cc2ccc3ncoc3c2)N1Cc1ccc2[nH]c(=O)oc2c1` (stereo not drawn) [Compound 216, 6-((1-(benzo[d]oxazol-6-ylmethyl)-3-oxoisoindolin-2-yl)methyl)benzo[d]oxazol-2(3H)-one], the “Enzymatic Emax” value is on record as “A (A>3)”. Besides, the 50% effective concentration (EC50) under setting [1] fell in the range of 0.5 to 5 µM.

For the molecule `O=C1c2ccccc2C(Cc2ncccc2Br)N1CCNc1c[nH]nn1` (stereo not drawn) [Compound 456, 2-(2-((1H-1,2,3-triazol-4-yl)amino)ethyl)-3-((3-bromopyridin-2-yl)methyl)isoindolin-1-one], the “Enzymatic Emax” value was “C (2≥C)”. For the same molecule, the EC50 under setting [2] is ≥ 5 µM.

For the molecule `Cc1ncccc1CC1c2ccccc2C(=O)N1Cc1ccc2[nH]c(=O)oc2c1` (stereo not drawn) [Compound 165, 6-((1-((2-methylpyridin-3-yl)methyl)-3-oxoisoindolin-2-yl)methyl)benzo[d]oxazol-2(3H)-one], the “Enzymatic Emax” value is “B (3≥B>2)”. In addition, under setting [1], the EC50 was in the range of 0.5 to 5 µM.

Regarding `O=C1c2ccccc2C(CC2CCOCC2)N1Cc1ccc2[nH]c(=O)oc2c1` (stereo not drawn) [Compound 226, 6-((1-oxo-3-((tetrahydro-2H-pyran-4-yl)methyl)isoindolin-2-yl)methyl)benzo[d]oxazol-2(3H)-one], the “Enzymatic Emax” value was “B (3≥B>2)”. Also, the EC50 under setting [1] is ≥ 5 µM.

For `O=C1c2ccccc2C(Cc2ncccc2Br)N1Cc1ccc2[nH]c(=O)ncc2c1` (stereo not drawn) [Compound 348, 6-((1-((3-bromopyridin-2-yl)methyl)-3-oxoisoindolin-2-yl)methyl)quinazolin-2(1H)-one], the “Enzymatic Emax” value is reported as “C (2≥C)”. Further, under setting [2], the EC50 is 0.5 to 5 µM.

As for `Cn1ncc(Cl)c1CC1c2ccccc2C(=O)N1C/C=C/c1nn[nH]c1Cl` (stereo not drawn) [Compound 525, (E)-3-((4-chloro-1-methyl-1H-pyrazol-5-yl)methyl)-2-(3-(5-chloro-1H-1,2,3-triazol-4-yl)allyl)isoindolin-1-one], the “Enzymatic Emax” value is reported as “C (2≥C)”. Further, under setting [2], the EC50 is ≥ 5 µM.

As for `Cc1cc2[nH]c(=O)oc2cc1CN1C(=O)c2ccccc2C1Cc1ncccc1Br` (stereo not drawn) [Compound 333, 6-((1-((3-bromopyridin-2-yl)methyl)-3-oxoisoindolin-2-yl)methyl)-5-methylbenzo[d]oxazol-2(3H)-one], the “Enzymatic Emax” value is reported as “B (3≥B>2)”. Besides, under setting [2], the concentration for a half-maximal effect (EC50) was 0.5 to 5 µM.

With `O=C1c2ccccc2C(Cc2ncccc2Br)N1Cc1ccc2[nH]c(Cl)nc2c1` (stereo not drawn) [Compound 255, 3-((3-bromopyridin-2-yl)methyl)-2-((2-chloro-1H-benzo[d]imidazol-5-yl)methyl) isoindolin-1-one], the “Enzymatic Emax” value is recorded as “A (A>3)”. Also, the concentration for a half-maximal effect (EC50) under setting [1] fell in the range of 0.5 to 5 µM.

`N#Cc1cccc(CC2c3ccccc3C(=O)N2Cc2ccc3[nH]c(=O)oc3c2)c1F` (stereo not drawn) [Compound 204, 2-fluoro-3-((3-oxo-2-((2-oxo-2,3-dihydrobenzo[d]oxazol-6-yl)methyl)isoindolin-1-yl)methyl)benzonitrile]: the “Enzymatic Emax” value was “B (3≥B>2)”. The EC50 under setting [1] fell in the range of 0.5 to 5 µM.

On to `Cn1ncc(Cl)c1CC1c2cc(F)cc(F)c2C(=O)N1CC1CC2(CNC(=O)O2)C1` (stereo not drawn) [Compound 496, 2-((1-((4-chloro-1-methyl-1H-pyrazol-5-yl)methyl)-4,6-difluoro-3-oxoisoindolin-2-yl)methyl)-5-oxa-7-azaspiro[3.4]octan-6-one], for which the “Enzymatic Emax” value is listed as “B (3≥B>2)”. For the same molecule, under setting [2], the EC50 is < 0.5 µM.

For the molecule `COc1ccc(CN2C(Cc3c(Cl)cnn3C)c3ccccc3S2(=O)=O)cn1` (stereo not drawn) [Compound 642, 3-((4-chloro-1-methyl-1H-pyrazol-5-yl)methyl)-2-((6-methoxypyridin-3-yl)methyl)-2,3-dihydrobenzo[d]isothiazole 1,1-dioxide], the “Enzymatic Emax” value is “B (3≥B>2)”. Further, the concentration for a half-maximal effect (EC50) under setting [2] was ≥ 5 µM.

On to `O=C1c2ccccc2C(Cc2ncccc2Br)N1C/C=C/c1n[nH]c(=O)o1` (stereo not drawn) [Compound 458, (E)-5-(3-(1-((3-bromopyridin-2-yl)methyl)-3-oxoisoindolin-2-yl)prop-1-en-1-yl)-1,3,4-oxadiazol-2(3H)-one], for which the “Enzymatic Emax” value was “B (3≥B>2)”. For the same molecule, the concentration giving a half-maximal response (EC50) under setting [2] is ≥ 5 µM.

For `Cc1conc1CC1c2ccccc2C(=O)N1Cc1ccc2[nH]c(=O)oc2c1` (stereo not drawn) [Compound 248, 6-((1-((4-methylisoxazol-3-yl)methyl)-3-oxoisoindolin-2-yl)methyl)benzo[d]oxazol-2(3H)-one], the “Enzymatic Emax” value is given as “A (A>3)”. For the same molecule, under setting [1], the EC50 was in the range of 0.5 to 5 µM.

For `O=C1c2ccccc2C(Cc2ncccc2Br)N1Cc1ccc2[nH]cnc2c1` (stereo not drawn) [Compound 268, 2-((1H-benzo[d]imidazol-5-yl)methyl)-3-((3-bromopyridin-2-yl)methyl)isoindolin-1-one], the “Enzymatic Emax” value was “A (A>3)”. For the same molecule, under setting [1], the EC50 is 0.5 to 5 µM.

`Cn1ncc(Cl)c1CC1c2ccccc2C(=O)N1[C@H]1C[C@H](c2c[nH]c(=O)o2)C1` (stereo partly drawn) [Compound 455, 5-((1r,3r)-3-(1-((4-chloro-1-methyl-1H-pyrazol-5-yl)methyl)-3-oxoisoindolin-2-yl)cyclobutyl)oxazol-2(3H)-one]: the “Enzymatic Emax” value is on record as “C (2≥C)”. Moreover, the EC50 under setting [2] was ≥ 5 µM.

Consider `O=C1Cc2ccccc2CN1Cc1ccc(O)cc1` [Compound 10, 2-(4-hydroxybenzyl)-1,4-dihydroisoquinolin-3(2H)-one], for which the “Enzymatic Emax” value is listed as “B (3≥B>2)”. Also, the EC50 under setting [1] was ≥ 5 µM.

Turning to `Cn1ncc(Cl)c1CC1c2ccccc2C(=O)N1Cc1ccc(F)cc1` (stereo not drawn) [Compound 572, 3-((4-chloro-1-methyl-1H-pyrazol-5-yl)methyl)-2-(4-fluorobenzyl)isoindolin-1-one], the “Enzymatic Emax” value is given as “C (2≥C)”. Besides, the half-maximal effective concentration (EC50) under setting [2] is ≥ 5 µM.

For `Cn1ncc(Cl)c1CC1c2ccccc2C(=O)N1Cc1ccccc1` (stereo not drawn) [Compound 502, 2-benzyl-3-((4-chloro-1-methyl-1H-pyrazol-5-yl)methyl)isoindolin-1-one], the “Enzymatic Emax” value is listed as “C (2≥C)”. Also, the EC50 under setting [2] is ≥ 5 µM.

With `Nn1c(=O)oc2cc(CN3C(=O)c4ccccc4C3Cc3ncccc3Br)ccc21` (stereo not drawn) [Compound 256, 3-Amino-6-((1-((3-bromopyridin-2-yl)methyl)-3-oxoisoindolin-2-yl)methyl)benzo[d]oxazol-2(3H)-one], the “Enzymatic Emax” value was “A (A>3)”. The EC50 under setting [1] was ≥ 5 µM.

Consider `Cn1ncc(Cl)c1CC1c2ccccc2C(=O)N1Cc1ccc2ocnc2c1` (stereo not drawn) [Compound 561, 2-(benzo[d]oxazol-5-ylmethyl)-3-((4-chloro-1-methyl-1H-pyrazol-5-yl)methyl)isoindolin-1-one], for which the “Enzymatic Emax” value was “C (2≥C)”. Under setting [2], the concentration for a half-maximal effect (EC50) is ≥ 5 µM.

Take `O=C1c2cccc(Nc3ccccc3)c2C(=O)N1Cc1ccc(O)cc1` [Compound 17, 2-(4-hydroxybenzyl)-4-(phenylamino)isoindoline-1,3-dione]: the “Enzymatic Emax” value is given as “B (3≥B>2)”. Besides, the EC50 under setting [1] fell in the range of 0.5 to 5 µM.

On to `N#CC1c2ccccc2C(=O)N1Cc1ccc(O)cc1` (stereo not drawn) [Compound 28, 2-(4-hydroxybenzyl)-3-oxoisoindoline-1-carbonitrile], for which the “Enzymatic Emax” value is “A (A>3)”. Under setting [1], the EC50 was ≥ 5 µM.

Consider `O=C1c2ccccc2C(COc2cccc(Cl)n2)N1Cc1ccc2[nH]c(=O)oc2c1` (stereo not drawn) [Compound 260, 6-((1-(((6-chloropyridin-2-yl)oxy)methyl)-3-oxoisoindolin-2-yl)methyl)benzo[d]oxazol-2(3H)-one], for which the “Enzymatic Emax” value is given as “B (3≥B>2)”. Also, the 50% effective concentration (EC50) under setting [1] lay within 0.5 to 5 µM.

For `Cn1ncc(Cl)c1CC1c2ccccc2C(=O)N1Cc1ccc(Br)cc1` (stereo not drawn) [Compound 575, 2-(4-bromobenzyl)-3-((4-chloro-1-methyl-1H-pyrazol-5-yl)methyl)isoindolin-1-one], the “Enzymatic Emax” value is “C (2≥C)”. For the same molecule, the concentration giving a half-maximal response (EC50) under setting [2] lay within 0.5 to 5 µM.
